Tests used:
Homo sapiens [1] = species on record: Homo sapiens; assay: Selectivity index, ratio of IC50 for human WI-38 cells to IC50 for human SK-OV-3 cells
Pseudomonas aeruginosa [2] = assay: Antimicrobial activity against Pseudomonas aeruginosa ATCC 9027 by serial microdilution method; type: functional
M-HeLa = assay: Cytotoxicity against human HelaM cells assessed as number of viable cells measured after 48 hrs by MTT based colorimetric assay; type: functional, cell-based
MCF7 = assay: Cytotoxicity against human MCF7 cells assessed as number of viable cells measured after 48 hrs by MTT based colorimetric assay; type: functional, cell-based; settings: MCF7, 48 h
HuTu80 [3] = assay: Cytotoxicity against human HuTu80 cells assessed as number of viable cells measured after 48 hrs by MTT based colorimetric assay; type: functional, cell-based; settings: HuTu80, 48 h
PANC-1 = assay: Cytotoxicity against human PANC-1 cells assessed as number of viable cells measured after 48 hrs by MTT based colorimetric assay; type: functional, cell-based; settings: PANC-1, 48 h
A549 = assay: Cytotoxicity against human A549 cells assessed as number of viable cells measured after 48 hrs by MTT based colorimetric assay; type: functional, cell-based; settings: A549, 48 h
PC-3 = assay: Cytotoxicity against human PC-3 cells assessed as number of viable cells measured after 48 hrs by MTT based colorimetric assay; type: functional, cell-based; settings: PC-3, 48 h
T98G = assay: Cytotoxicity against human T98G cells assessed as number of viable cells measured after 48 hrs by MTT based colorimetric assay; type: functional, cell-based
HepG2 = assay: Cytotoxicity against human HepG2 cells assessed as number of viable cells measured after 48 hrs by MTT based colorimetric assay; type: functional, cell-based; settings: HepG2, 48 h
SK-OV-3 = assay: Cytotoxicity against human SK-OV-3 cells assessed as number of viable cells measured after 48 hrs by MTT based colorimetric assay; type: functional, cell-based; settings: SK-OV-3, 48 h
DU-145 = assay: Cytotoxicity against human DU-145 cells assessed as number of viable cells measured after 48 hrs by MTT based colorimetric assay; type: functional, cell-based; settings: DU-145, 48 h
[4] = Cytotoxicity against human WI-38 cells assessed as number of viable cells measured after 48 hrs by MTT based colorimetric assay; type: toxicity, cell-based
[5] = Cytotoxicity against human Chang liver cells assessed as number of viable cells measured after 48 hrs by MTT based colorimetric assay; type: toxicity, cell-based
[6] = Selectivity index, ratio of IC50 for human WI-38 cells to IC50 for human MCF7 cells; type: toxicity; settings: WI-38 cells and MCF7 cells, read-out: Ratio IC50
Homo sapiens [7] = species on record: Homo sapiens; assay: Selectivity index, ratio of IC50 for human WI-38 cells to IC50 for human HuTu80 cells
Homo sapiens [8] = species on record: Homo sapiens; assay: Selectivity index, ratio of IC50 for human WI-38 cells to IC50 for human PANC-1 cells
[9] = Selectivity index, ratio of IC50 for human WI-38 cells to IC50 for human PC-3 cells; type: toxicity; settings: WI-38 cells and PC-3 cells, read-out: Ratio IC50
[10] = Selectivity index, ratio of IC50 for human WI-38 cells to IC50 for human HepG2 cells; type: toxicity; settings: WI-38 cells and HepG2 cells, read-out: Ratio IC50
Homo sapiens [11] = species on record: Homo sapiens; assay: Selectivity index, ratio of IC50 for human WI-38 cells to IC50 for human DU-145 cells
Staphylococcus aureus [12] = assay: Antimicrobial activity against Staphylococcus aureus ATCC 6538 P FDA 209P by serial microdilution method; type: functional
Bacillus cereus [13] = assay: Antimicrobial activity against Bacillus cereus ATCC 10702 NCTC 8035 by serial microdilution method; type: functional
Enterococcus faecalis [14] = assay: Antimicrobial activity against Enterococcus faecalis ATCC 29212 by serial microdilution method; type: functional
Escherichia coli [15] = assay: Antimicrobial activity against Escherichia coli ATCC 25922 by serial microdilution method; type: functional
Staphylococcus aureus [16] = assay: Bactericidal against Staphylococcus aureus ATCC 6538 P FDA 209P by serial microdilution method; type: functional
Enterococcus faecalis [17] = assay: Bactericidal activity against Enterococcus faecalis ATCC 29212 by serial microdilution method; type: functional
Escherichia coli [18] = assay: Bactericidal activity against Escherichia coli ATCC 25922 by serial microdilution method; type: functional
Pseudomonas aeruginosa [19] = assay: Bactericidal against Pseudomonas aeruginosa ATCC 9027 by serial microdilution method; type: functional
[20] = Selectivity index, ratio of IC50 for human WI-38 cells to IC50 for human A549 cells; type: toxicity; settings: WI-38 cells and A549 cells, read-out: Ratio IC50
[21] = Selectivity index, ratio of IC50 for human WI-38 cells to IC50 for human T98G cells; type: toxicity; settings: WI-38 cells and T98G cells, read-out: Ratio IC50
HuTu80 [22] = assay: Induction of apoptosis in human HuTu80 cells assessed as viable cells at 1 uM incubated for 48 hrs by annexin V FITC/propidium iodide staining based flow cytometry analysis (reference value: 93.71%); type: functional; settings: read-out: Activity
HuTu80 [23] = assay: Induction of apoptosis in human HuTu80 cells assessed as viable cells at 2 uM incubated for 48 hrs by annexin V FITC/propidium iodide staining based flow cytometry analysis (reference value: 93.71%); type: functional; settings: read-out: Activity
HuTu80 [24] = assay: Induction of apoptosis in human HuTu80 cells assessed as early apoptotic cells at 1 uM incubated for 48 hrs by annexin V FITC/propidium iodide staining based flow cytometry analysis (reference value: 1.74%); type: functional
HuTu80 [25] = assay: Induction of apoptosis in human HuTu80 cells assessed as early apoptotic cells at 2 uM incubated for 48 hrs by annexin V FITC/propidium iodide staining based flow cytometry analysis (reference value: 1.74%); type: functional
HuTu80 [26] = assay: Induction of apoptosis in human HuTu80 cells assessed as late apoptotic cells at 1 uM incubated for 48 hrs by annexin V FITC/propidium iodide staining based flow cytometry analysis (reference value: 0.00%); type: functional
HuTu80 [27] = assay: Induction of apoptosis in human HuTu80 cells assessed as late apoptotic cells at 2 uM incubated for 48 hrs by annexin V FITC/propidium iodide staining based flow cytometry analysis (reference value: 0.00%); type: functional
HuTu80 [28] = assay: Induction of apoptosis in human HuTu80 cells assessed as necrotic cells at 1 uM incubated for 48 hrs by annexin V FITC/propidium iodide staining based flow cytometry analysis (reference value: 4.56%); type: functional
HuTu80 [29] = assay: Induction of apoptosis in human HuTu80 cells assessed as necrotic cells at 2 uM incubated for 48 hrs by annexin V FITC/propidium iodide staining based flow cytometry analysis (reference value: 4.56%); type: functional
HuTu80 [30] = assay: Induction of cell cycle arrest in human HuTu80 cells assessed as accumulation of cell at G1/G0 phase at 1 uM measured after 48 hrs by propidium iodide staining based analysis (reference value: 72%); type: functional
HuTu80 [31] = assay: Induction of cell cycle arrest in human HuTu80 cells assessed as accumulation of cell at G1/G0 phase at 2 uM measured after 48 hrs by propidium iodide staining based analysis (reference value: 72%); type: functional
HuTu80 [32] = assay: Induction of cell cycle arrest in human HuTu80 cells assessed as accumulation of cell at G2/M phase at 1 uM measured after 48 hrs by propidium iodide staining based analysis (reference value: 18.7%); type: functional
HuTu80 [33] = assay: Induction of cell cycle arrest in human HuTu80 cells assessed as accumulation of cell at G2/M phase at 2 uM measured after 48 hrs by propidium iodide staining based analysis (reference value: 18.7%); type: functional
HuTu80 [34] = assay: Induction of cell cycle arrest in human HuTu80 cells assessed as accumulation of cell at S phase at 1 uM measured after 48 hrs by propidium iodide staining based analysis (reference value: 8.1%); type: functional
HuTu80 [35] = assay: Induction of cell cycle arrest in human HuTu80 cells assessed as accumulation of cell at S phase at 2 uM measured after 48 hrs by propidium iodide staining based analysis (reference value: 8.1%); type: functional
HuTu80 [36] = assay: Induction of ROS production in human HuTu80 cells assessed as increase in fluorescence intensity at 5 uM measured after 48 hrs by flow cytometry based analysis (reference value: 380); type: functional
HuTu80 [37] = assay: Induction of ROS production in human HuTu80 cells assessed as increase in fluorescence intensity at 10 uM measured after 48 hrs by flow cytometry based analysis (reference value: 380); type: functional
HuTu80 [38] = assay: Induction of mitochondrial membrane potential loss in human HuTu80 cells assessed as J-monomer green fluorescence intensity at 5 uM incubated for 24 hrs by JC10 staining based flow cytometry method (reference value: 5.7%); type: functional
HuTu80 [39] = assay: Induction of mitochondrial membrane potential loss in human HuTu80 cells assessed as J-monomer green fluorescence intensity at 10 uM incubated for 24 hrs by JC10 staining based flow cytometry method (reference value: 5.7%); type: functional
HuTu80 [40] = assay: Induction of mitochondrial membrane potential loss in human HuTu80 cells assessed as J-aggregates red fluorescence intensity at 5 uM incubated for 24 hrs by JC10 staining based flow cytometry method (reference value: 94.4%); type: functional
HuTu80 [41] = assay: Induction of mitochondrial membrane potential loss in human HuTu80 cells assessed as J-aggregates red fluorescence intensity at 10 uM incubated for 24 hrs by JC10 staining based flow cytometry method (reference value: 94.4%); type: functional
Bacillus cereus [42] = assay: Bactericidal activity against Bacillus cereus ATCC 10702 NCTC 8035 by serial microdilution method; type: functional

CC(C)C1=CC2=CC[C@@H]3[C@](C)(CCC[C@@]3(C)C(=O)OCC(O)COC(=O)CCCC[P+](c3ccccc3)(c3ccccc3)c3ccccc3)[C@H]2CC1 (stereo partly specified)
Ratio IC50 (Homo sapiens [1]): 1.7
MIC (Pseudomonas aeruginosa [2]): 250 µM
IC50 (M-HeLa): 27.3 µM
IC50 (MCF7): 12.5 µM
IC50 (HuTu80 [3]): 2200 nM
IC50 (PANC-1): 13.1 µM
IC50 (A549): 26.2 µM
IC50 (PC-3): 11 µM
IC50 (T98G): 9.8 µM
IC50 (HepG2): 21.6 µM
IC50 (SK-OV-3): 14.4 µM
IC50 (DU-145): 2.8 µM
IC50 at 48 h [4]: 24.2 µM
IC50 at 48 h [5]: 6 µM
selectivity ratio [6]: 1.9
Ratio IC50 (Homo sapiens [7]): 11
Ratio IC50 (Homo sapiens [8]): 1.8
selectivity ratio [9]: 2.2
selectivity ratio [10]: 1.1
Ratio IC50 (Homo sapiens [11]): 8.6
MIC (Staphylococcus aureus [12]): 31.3 µM
MIC (Bacillus cereus [13]): 3.9 µM
MIC (Enterococcus faecalis [14]): 7.8 µM
MIC (Escherichia coli [15]): 250 µM
MBC (Staphylococcus aureus [16]): 250 µM
MBC (Enterococcus faecalis [17]): 250 µM
MBC (Escherichia coli [18]): 500 µM
MBC (Pseudomonas aeruginosa [19]): 500 µM

C=C(C)[C@@H]1CC[C@]2(COCC(O)COC(=O)CCCC[P+](c3ccccc3)(c3ccccc3)c3ccccc3)CC[C@]3(C)[C@H](CC[C@@H]4[C@@]5(C)CC[C@H](O)C(C)(C)[C@@H]5CC[C@]43C)[C@@H]12 (stereo partly specified)
IC50 (M-HeLa): 11.5 µM
IC50 (MCF7): 1.5 µM
IC50 (HuTu80 [3]): 300 nM
IC50 (A549): 3.1 µM
IC50 (PC-3): 7.9 µM
IC50 (T98G): 4.1 µM
IC50 at 48 h [4]: 4.7 µM
selectivity ratio [6]: 3.1
Ratio IC50 (Homo sapiens [7]): 15.7
selectivity ratio [20]: 1.5
selectivity ratio [21]: 1.1

C=C(C)[C@@H]1CC[C@]2(COC(=O)CCC(=O)OC(COC(=O)CCCCCCC/C=C\CCCCCCCC)COC(=O)CCCC[P+](c3ccccc3)(c3ccccc3)c3ccccc3)CC[C@]3(C)[C@H](CC[C@@H]4[C@@]5(C)CC[C@H](O)C(C)(C)[C@@H]5CC[C@]43C)[C@@H]12.[Br-] (stereo partly specified)
IC50 (M-HeLa): 51 µM
IC50 (MCF7): 16.4 µM
IC50 (HuTu80 [3]): 1700 nM
IC50 (PANC-1): 35.7 µM
IC50 (A549): 54.2 µM
IC50 (PC-3): 32.3 µM
IC50 (T98G): 22 µM
IC50 (HepG2): 60 µM
IC50 (SK-OV-3): 57 µM
IC50 (DU-145): 15.5 µM
IC50 at 48 h [4]: 36.3 µM
IC50 at 48 h [5]: 11.2 µM
selectivity ratio [6]: 2.2
Ratio IC50 (Homo sapiens [7]): 21.4
selectivity ratio [9]: 1.1
selectivity ratio [21]: 1.7
Ratio IC50 (Homo sapiens [11]): 2.3
viability at 1 µM (HuTu80 [22]): 76.1%
viability at 2 µM (HuTu80 [23]): 51%
Activity (HuTu80 [24]): 1.29%
Activity (HuTu80 [25]): 2.5%
Activity (HuTu80 [26]): 4.58%
Activity (HuTu80 [27]): 12%
Activity (HuTu80 [28]): 18.03%
Activity (HuTu80 [29]): 34.5%
Activity (HuTu80 [30]): 84%
Activity (HuTu80 [31]): 87%
Activity (HuTu80 [32]): 2.8%
Activity (HuTu80 [33]): 1.8%
Activity (HuTu80 [34]): 2.8%
Activity (HuTu80 [35]): 1.9%
Flu intensity (HuTu80 [36]): 500
Flu intensity (HuTu80 [37]): 840
Activity (HuTu80 [38]): 15.9%
Activity (HuTu80 [39]): 9.7%
Activity (HuTu80 [40]): 84.2%
Activity (HuTu80 [41]): 90.3%
MIC (Staphylococcus aureus [12]): 31.3 µM
MIC (Bacillus cereus [13]): 15.6 µM
MIC (Enterococcus faecalis [14]): 125 µM
MBC (Staphylococcus aureus [16]): 125 µM
MBC (Bacillus cereus [42]): 125 µM
